Experiment: xn = mol fraction of the nth substance listed
Conditions: 101 kPa, Liquid; for viscosity: Capillary tube (Ostwald / Ubbelohde) method; for speed of sound: Frequency=3 MHz, Linear variable-path acoustic interferometer

C1COCCO1 [1,4-dioxane] + Cc1ccccc1
Conditions | speed of sound [m/s] | viscosity [mPa·s]
293.15 K, x1 = 0.0688 | 1330.1 | 0.6346
293.15 K, x1 = 0.1373 | 1331.5 | 0.6812
293.15 K, x1 = 0.2112 | 1333 | 0.732
293.15 K, x1 = 0.2858 | 1334.8 | 0.784
293.15 K, x1 = 0.3552 | 1336.5 | 0.8327
293.15 K, x1 = 0.4361 | 1338.6 | 0.8901
293.15 K, x1 = 0.5064 | 1340.7 | 0.9405
293.15 K, x1 = 0.5819 | 1343.2 | 0.9951
293.15 K, x1 = 0.6506 | 1346 | 1.045
293.15 K, x1 = 0.7212 | 1349.1 | 1.097
293.15 K, x1 = 0.7903 | 1352.5 | 1.148
293.15 K, x1 = 0.864 | 1356.9 | 1.203
293.15 K, x1 = 0.9336 | 1361.8 | 1.256
293.15 K, x1 = 1 | 1367.2 | 1.306
298.15 K, x1 = 0.0688 | 1308.4 | 0.5952
298.15 K, x1 = 0.1373 | 1309.5 | 0.6366
298.15 K, x1 = 0.2112 | 1310.9 | 0.682
298.15 K, x1 = 0.2858 | 1312.4 | 0.7282
298.15 K, x1 = 0.3552 | 1313.9 | 0.7716
298.15 K, x1 = 0.4361 | 1315.9 | 0.8229
298.15 K, x1 = 0.5064 | 1317.9 | 0.8679
298.15 K, x1 = 0.5819 | 1320.4 | 0.9166
298.15 K, x1 = 0.6506 | 1323.2 | 0.9613
298.15 K, x1 = 0.7212 | 1326.3 | 1.008
298.15 K, x1 = 0.7903 | 1329.8 | 1.053
298.15 K, x1 = 0.864 | 1334.2 | 1.103
298.15 K, x1 = 0.9336 | 1339.1 | 1.15
298.15 K, x1 = 1 | 1344.7 | 1.195
303.15 K, x1 = 0.0688 | 1286.3 | 0.56
303.15 K, x1 = 0.1373 | 1287.2 | 0.597
303.15 K, x1 = 0.2112 | 1288.4 | 0.6373
303.15 K, x1 = 0.2858 | 1289.7 | 0.6785
303.15 K, x1 = 0.3552 | 1291.2 | 0.7173
303.15 K, x1 = 0.4361 | 1293.2 | 0.7631
303.15 K, x1 = 0.5064 | 1295.2 | 0.8033
303.15 K, x1 = 0.5819 | 1297.8 | 0.8469
303.15 K, x1 = 0.6506 | 1300.6 | 0.887
303.15 K, x1 = 0.7212 | 1303.9 | 0.9286
303.15 K, x1 = 0.7903 | 1307.5 | 0.9696
303.15 K, x1 = 0.864 | 1312.2 | 1.014
303.15 K, x1 = 0.9336 | 1317.3 | 1.056
303.15 K, x1 = 1 | 1323.1 | 1.096
308.15 K, x1 = 0.0688 | 1264.8 | 0.5284
308.15 K, x1 = 0.1373 | 1265.5 | 0.5619
308.15 K, x1 = 0.2112 | 1266.5 | 0.5984
308.15 K, x1 = 0.2858 | 1267.7 | 0.6357
308.15 K, x1 = 0.3552 | 1269 | 0.6709
308.15 K, x1 = 0.4361 | 1270.9 | 0.7124
308.15 K, x1 = 0.5064 | 1272.9 | 0.7489
308.15 K, x1 = 0.5819 | 1275.4 | 0.7885
308.15 K, x1 = 0.6506 | 1278.2 | 0.8249
308.15 K, x1 = 0.7212 | 1281.6 | 0.8627
308.15 K, x1 = 0.7903 | 1285.3 | 0.8998
308.15 K, x1 = 0.864 | 1290.1 | 0.9399
308.15 K, x1 = 0.9336 | 1295.3 | 0.978
308.15 K, x1 = 1 | 1301.2 | 1.014
313.15 K, x1 = 0.0688 | 1242.8 | 0.4969
313.15 K, x1 = 0.1373 | 1243.4 | 0.5278
313.15 K, x1 = 0.2112 | 1244.3 | 0.5615
313.15 K, x1 = 0.2858 | 1245.4 | 0.596
313.15 K, x1 = 0.3552 | 1246.7 | 0.6284
313.15 K, x1 = 0.4361 | 1248.6 | 0.6666
313.15 K, x1 = 0.5064 | 1250.6 | 0.7003
313.15 K, x1 = 0.5819 | 1253.2 | 0.7368
313.15 K, x1 = 0.6506 | 1256 | 0.7702
313.15 K, x1 = 0.7212 | 1259.4 | 0.805
313.15 K, x1 = 0.7903 | 1263.3 | 0.8393
313.15 K, x1 = 0.864 | 1268.2 | 0.8762
313.15 K, x1 = 0.9336 | 1273.6 | 0.9114
313.15 K, x1 = 1 | 1279.7 | 0.945
318.15 K, x1 = 0.0688 | 1221 | 0.467
318.15 K, x1 = 0.1373 | 1221.5 | 0.4958
318.15 K, x1 = 0.2112 | 1222.3 | 0.5272
318.15 K, x1 = 0.2858 | 1223.3 | 0.5593
318.15 K, x1 = 0.3552 | 1224.6 | 0.5895
318.15 K, x1 = 0.4361 | 1226.5 | 0.6251
318.15 K, x1 = 0.5064 | 1228.6 | 0.6564
318.15 K, x1 = 0.5819 | 1231.2 | 0.6903
318.15 K, x1 = 0.6506 | 1234.1 | 0.7215
318.15 K, x1 = 0.7212 | 1237.6 | 0.7539
318.15 K, x1 = 0.7903 | 1241.6 | 0.7857
318.15 K, x1 = 0.864 | 1246.7 | 0.82
318.15 K, x1 = 0.9336 | 1252.3 | 0.8527
318.15 K, x1 = 1 | 1258.6 | 0.884

C1COCCO1 [1,4-dioxane] + c1ccccc1
Conditions | speed of sound [m/s] | viscosity [mPa·s]
293.15 K, x1 = 0.0713 | 1329.8 | 0.6955
293.15 K, x1 = 0.1403 | 1334.5 | 0.7421
293.15 K, x1 = 0.2123 | 1339.4 | 0.7905
293.15 K, x1 = 0.2809 | 1343.6 | 0.8364
293.15 K, x1 = 0.3528 | 1347.9 | 0.8842
293.15 K, x1 = 0.4195 | 1351.5 | 0.9283
293.15 K, x1 = 0.5037 | 1355.8 | 0.9838
293.15 K, x1 = 0.58 | 1359.2 | 1.034
293.15 K, x1 = 0.6504 | 1362.2 | 1.08
293.15 K, x1 = 0.7197 | 1364.2 | 1.125
293.15 K, x1 = 0.7822 | 1365.4 | 1.165
293.15 K, x1 = 0.8561 | 1366.9 | 1.213
293.15 K, x1 = 0.9287 | 1367.4 | 1.26
293.15 K, x1 = 1 | 1367.2 | 1.306
298.15 K, x1 = 0.0713 | 1304 | 0.6485
298.15 K, x1 = 0.1403 | 1308.1 | 0.6905
298.15 K, x1 = 0.2123 | 1312.5 | 0.7339
298.15 K, x1 = 0.2809 | 1316.5 | 0.775
298.15 K, x1 = 0.3528 | 1320.5 | 0.8179
298.15 K, x1 = 0.4195 | 1324 | 0.8574
298.15 K, x1 = 0.5037 | 1328.2 | 0.907
298.15 K, x1 = 0.58 | 1332 | 0.9517
298.15 K, x1 = 0.6504 | 1335.1 | 0.9928
298.15 K, x1 = 0.7197 | 1337.5 | 1.033
298.15 K, x1 = 0.7822 | 1339.8 | 1.069
298.15 K, x1 = 0.8561 | 1342 | 1.112
298.15 K, x1 = 0.9287 | 1343.7 | 1.154
298.15 K, x1 = 1 | 1344.7 | 1.195
303.15 K, x1 = 0.0713 | 1279.4 | 0.6068
303.15 K, x1 = 0.1403 | 1283 | 0.6446
303.15 K, x1 = 0.2123 | 1287 | 0.6836
303.15 K, x1 = 0.2809 | 1290.6 | 0.7206
303.15 K, x1 = 0.3528 | 1294.2 | 0.7591
303.15 K, x1 = 0.4195 | 1297.6 | 0.7946
303.15 K, x1 = 0.5037 | 1301.8 | 0.839
303.15 K, x1 = 0.58 | 1305.7 | 0.879
303.15 K, x1 = 0.6504 | 1309.2 | 0.9157
303.15 K, x1 = 0.7197 | 1312.3 | 0.9517
303.15 K, x1 = 0.7822 | 1315.1 | 0.9841
303.15 K, x1 = 0.8561 | 1318.2 | 1.022
303.15 K, x1 = 0.9287 | 1320.8 | 1.059
303.15 K, x1 = 1 | 1323.1 | 1.096
308.15 K, x1 = 0.0713 | 1255.4 | 0.5686
308.15 K, x1 = 0.1403 | 1258.7 | 0.6033
308.15 K, x1 = 0.2123 | 1262 | 0.6392
308.15 K, x1 = 0.2809 | 1265.1 | 0.673
308.15 K, x1 = 0.3528 | 1268.7 | 0.7082
308.15 K, x1 = 0.4195 | 1272 | 0.7406
308.15 K, x1 = 0.5037 | 1276.1 | 0.7812
308.15 K, x1 = 0.58 | 1280.2 | 0.8176
308.15 K, x1 = 0.6504 | 1284 | 0.851
308.15 K, x1 = 0.7197 | 1287.4 | 0.8837
308.15 K, x1 = 0.7822 | 1290.8 | 0.9131
308.15 K, x1 = 0.8561 | 1294.5 | 0.9477
308.15 K, x1 = 0.9287 | 1297.9 | 0.9815
308.15 K, x1 = 1 | 1301.2 | 1.014
313.15 K, x1 = 0.0713 | 1231.7 | 0.532
313.15 K, x1 = 0.1403 | 1234.3 | 0.5644
313.15 K, x1 = 0.2123 | 1237.2 | 0.5979
313.15 K, x1 = 0.2809 | 1240.5 | 0.6294
313.15 K, x1 = 0.3528 | 1244 | 0.6621
313.15 K, x1 = 0.4195 | 1247.1 | 0.6921
313.15 K, x1 = 0.5037 | 1251.3 | 0.7297
313.15 K, x1 = 0.58 | 1255.5 | 0.7634
313.15 K, x1 = 0.6504 | 1259.4 | 0.7943
313.15 K, x1 = 0.7197 | 1263.5 | 0.8245
313.15 K, x1 = 0.7822 | 1266.8 | 0.8516
313.15 K, x1 = 0.8561 | 1271.2 | 0.8835
313.15 K, x1 = 0.9287 | 1275.3 | 0.9146
313.15 K, x1 = 1 | 1279.7 | 0.945
318.15 K, x1 = 0.0713 | 1209.6 | 0.4993
318.15 K, x1 = 0.1403 | 1211.9 | 0.5297
318.15 K, x1 = 0.2123 | 1214.5 | 0.5611
318.15 K, x1 = 0.2809 | 1217.2 | 0.5906
318.15 K, x1 = 0.3528 | 1220.5 | 0.6211
318.15 K, x1 = 0.4195 | 1223.6 | 0.6492
318.15 K, x1 = 0.5037 | 1227.9 | 0.6842
318.15 K, x1 = 0.58 | 1232.1 | 0.7156
318.15 K, x1 = 0.6504 | 1236 | 0.7443
318.15 K, x1 = 0.7197 | 1240.1 | 0.7724
318.15 K, x1 = 0.7822 | 1243.9 | 0.7975
318.15 K, x1 = 0.8561 | 1248.8 | 0.8271
318.15 K, x1 = 0.9287 | 1253.6 | 0.8559
318.15 K, x1 = 1 | 1258.6 | 0.884
